The values that follow come from article PMC10705946, “^225Ac-iPSMA-RGD for Alpha-Therapy Dual Targeting of Stromal/Tumor Cell PSMA and Integrins” (International Journal of Molecular Sciences, 2023).

Data set [1] relates to HCT116 colorectal cancer cells. Description: Cellular uptake and internalization, with blocked receptor assay. The class given is cell-based, human. As for the experimental part:
The ^225Ac-iPSMA-RGD uptake was performed on HCT116, C6 and PC3 cell lines, which were selected based on their variable PSMA and RGD expression according to previous research by our group and others. Each cell line was diluted to 1 × 10^6 cells with 1 mL of PBS in tubes and incubated at 37 °C with 30 μL of ^225Ac-iPSMA-RGD (20 μL, 70 Bq) for 0.5 h, 1 h and 3 h (n = 6). At each time point, the tubes were centrifuged at 3000 rpm for 5 min and rinsed twice with PBS. The measured activity in a NaI(Tl) well-type detector in the pellet, represents the uptake and internalization. To remove the ^225Ac-iPSMA-RGD at the cell membrane level, 1 mL of 0.2 M CH3COOH /0.5 M NaCl was added and the pellet was resuspended. The tubes were then centrifuged and washed with PBS twice (this activity is considered internalization).

In data set [2] the test system is HCT116 cells. In words: Apoptosis, Muse Caspase-3/7 kit with 7-AAD, flow cytometry. The class given is cell-based, human. As for the experimental part:
Apoptosis in the colorectal HCT116 cancer cell line was evaluated in triplicate, using the Muse^TM Caspase-3/7 kit, Cat No. MCH100108 (Merck Millipore, Burlington, MA, USA). Briefly, cells were seeded in cell culture flasks at a density of 1 × 10^6 cells and exposed to 4.5 Bq of (2 Gy) and 9.0 Bq […] (4 Gy) of ^225Ac-iPSMA-RGD. Untreated cells were used as the control group and the positive control was prepared through nutrient starvation for 24 h. First, cells were trypsinized and suspended in 50 µL of 1X Assay Buffer BA (1 × 10^6 cells/mL). Then, 5 µL of Caspase-3/7 reagent working solution was added at 37 °C with 5% of CO2 for 30 min. After incubation, 150 µL of Caspase 7-AAD working solution was added to each tube. Finally, tubes were incubated for 5 min, protected from light, and fluorescent intensities were examined by flow cytometry using a Muse Cell Analyzer (Merck Millipore, Burlington, MA, USA) and were conducted in triplicate).
A general note: Flow cytometry measures light scatter and fluorescence of single cells or particles in a stream.

The test system of data set [3] is HCT116 cells. Description: Reactive oxygen species, Muse Oxidative Stress kit. The class given is cell-based, human. The conditions noted are these: for M1 (ROS plot gate) / M2 (ROS plot gate): representative plot. As for the experimental part:
Reactive oxygen species (ROS) were detected with the Muse™ Oxidative Stress kit, (Merck Millipore, Burlington, MA, USA) by measuring the produced intracellular superoxide radicals through dihydroethidium fluorescence. H2O2 (40 nM) was used as the positive control. Briefly, cells were seeded in cell culture flasks at a density of 1 × 10^6 cells and exposed to 4.5 Bq (2 Gy) and 9 Bq (4 Gy) of ^225Ac-iPSMA-RGD. Untreated cells were used as the control group. First, cells were trypsinized and suspended in 10 μL of 1X Assay Buffer. Then 190 μL of the oxidative stress reagent working solution was added to each cell suspension. The suspension was then gently vortexed and incubated at 37 °C with 5% CO2 for 30 min. Fluorescent intensities were examined by flow cytometry using a Muse Cell Analyzer (Merck Millipore, Burlington, MA, USA) and were performed in triplicate. Statistical analysis was performed with two-way ANOVA followed by Tukey’s multiple comparisons test using GraphPad Prism 5.0 Software. Data are shown as mean ± SEM. A p < 0.05 was considered statistically significant.

Data set [4] deals with phosphorylated H2A.X in HCT116 cells. Description: DNA double-stranded breaks assay (phosphorylated H2A.X foci). The class given is cell-based, human. The conditions noted are these: HCT116, 2 Gy and 4 Gy. Here is the method:
For the evaluation of DNA double-stranded breaks (DSBs), the phosphorylation of the Ser-139 gamma histone variant H2A.X (γH2A.X) was used as a biomarker. HCT116 cells were grown on a glass slide after exposure of 4.5 Bq (2 Gy) and 9.0 Bq (4 Gy) of ^225Ac-iPSMA-RGD for 60 min. The anti-phospho-histone H2A.X (ser139) cl 6L16 ZooMAb (Cat. ZRB05636, Merck, Darmstadt, Germany) antibody was used as the primary antibody. […] To quantify the foci, clear and easily distinguishable dots were counted. At least 30 cells were imaged per slide, and the average number of foci per cell was calculated. Statistical analysis was performed with two-way ANOVA followed by Tukey’s multiple comparisons test using GraphPad Prism 5.0 Software. Data are shown as mean ± SEM. A p < 0.05 was considered statistically significant.

Data set [5] is described as follows: Absorbed radiation dose estimation (N and dose, OLINDA 2.0). The class given is in vivo, athymic mice. From the text:
The %ID/organ data were used to calculate the biokinetic models. […] The ^225Ac decay chain was considered for dosimetry. […] DF (dose factor, mGy/MBq) values were obtained from OLINDA 2.0 code (Dose, Gy = NxDF).

Data set [6] in a line: in vitro. The conditions noted are these: human, diluted human serum (1:5, v/v).
Method: After adding 200 μL of ^225Ac-iPSMA-RGD to the diluted human serum (1:5, v/v) in a vial (n = 3), the mixture was kept at 37 °C in a dry bath. At 0.5 h, 1 h, and 3 h intervals, 200 μL of each vial was removed and 1 mL of methanol: acetonitrile (1:1, v/v) was added to precipitate the proteins. The total activity was measured in a NaI(Tl) well-type detector by 218 keV gamma emission of Fr-221 and the solution was centrifuged at 3000 rpm for 5 min. The supernatant was then decanted and the pellet measured to determine ^225Ac binding proteins.

For the compound `N=C(N)NCCC[C@@H]1NC(=O)[C@H](CCCCNC(=O)CCCN2C(=O)CC(SC[C@H](NC(=O)c3ccc(NNC(=S)Nc4ccc(CC5CN(CC(=O)O)CCN(CC(=O)O)CCN(CC(=O)O)CCN(CC(=O)O)CCN(CC(=O)O)CCN5CC(=O)O)cc4)nc3)C(=O)N[C@@H](Cc3ccc4ccccc4c3)C(=O)NCCCC[C@H](NC(=O)N[C@@H](CCC(=O)O)C(=O)O)C(=O)O)C2=O)NC(=O)[C@@H](Cc2ccccc2)NC(=O)[C@H](CC(=O)O)NC(=O)CNC1=O` (stereo partly shown) [^225Ac-iPSMA-RGD, ^225Ac-HEHA-HYNIC-iPSMA-RGD, metal not drawn], in data set [1] (HCT116 cells, blocking with unlabeled 1 mM iPSMA, RGD and iPSMA-RGD), the “Uptake and internalization, blocked vs unblocked cell receptors” value is “statistically significant difference between blocked and unblocked cell receptors”. The “Radiopharmaceutical uptake in colorectal cancer cells compared to C6 and PC3 cells” value in data set [1] (HCT116 vs C6 and PC3 cells) is on record as “significantly higher”. In data set [2] (HCT116, 2 Gy), the “Increase in apoptotic/dead cells” value is listed as “approximately 24.6%”. Also, in data set [2] (HCT116, 4 Gy), the “Increase in apoptotic/dead cells” value is listed as roughly 31.2%. In data set [3] (4 Gy), the “Increase of HCT116 cells with oxidative stress” value is reported as “approximately 30%”. Further, in data set [3] (HCT116, 2 Gy), the “M1 (ROS plot gate)” value is recorded as 90.14% and the “M2 (ROS plot gate)” value is on record as 9.82%. In data set [3] (HCT116, 4 Gy), the “M1 (ROS plot gate)” value is 59.30% and the “M2 (ROS plot gate)” value worked out at 40.52%. Also, the “Average foci of phosphorylated H2A.X” value in data set [4] was 19. Further, in data set [5] (athymic mice), the “Radiation Absorbed Dose, Kidney” value was 17.63 Gy/37 kBq and the “Radiation Absorbed Dose, Liver” value is given as 15.85 Gy/37 kBq. Moreover, the “Radiation Absorbed Dose, Tumor” value in data set [5] (athymic mice, HCT116 tumor) is 237.07 Gy/37 kBq. In addition, in data set [5] (athymic mice, HCT116 tumor, t = 0 to 11 days), the “Total nuclear transformations N=∫t=0t=11dAtdt, Tumor” value was 7.83 MBq·h. In addition, in data set [5] (athymic mice, t = 0 to 11 days), the “Total nuclear transformations N=∫t=0t=11dAtdt, Kidney” value was 3.52 MBq·h and the “Total nuclear transformations N=∫t=0t=11dAtdt, Liver” value is 5.23 MBq·h. In data set [5] (mice, from Table 1), the “Tumor-to-kidney radiation dose ratio” value is on record as “thirteen” and the “Tumor-to-liver radiation dose ratio” value is “fifteen”. In data set [6], the fraction unbound (usually free concentration divided by total concentration) at 3 h was 0.923.
